Assay results from PMC8222254, “Self-assembly of an anion receptor with metal-dependent kinase inhibition and potent in vitro anti-cancer properties” (Nature Communications, 2021).
Several values for one entry are separate records, joined by “and”; a condition that tells them apart may be missing. Equal values may be shown once. Read-outs that look alike come from different tables or passages of the source.

Experiments:
Assay in all cases: Chemosensitivity, 96 h continuous exposure, MTT assay
Type in all cases: cell-based, human
A549 = tested on: A549
Excerpt: (§1) All cell lines were purchased from and maintained as monolayers as described by the American Type Culture Collection with the exception of the p53^+/+ and p53^−/− isogenic clones of HCT116 human colorectal adenocarcinoma cells which were a kind gift from Professor Bert Vogelstein[54]. GBM1 cells were established from a primary GBM tumour by Heiko Wurdak and colleagues[32],[33]. Non-cancerous adult brain neural progenitor (NP1) cells were derived from a patient undergoing surgery to treat epilepsy[32],[33]. Cell culture and growth media for NP1 and GBM1 cells were as described[32],[33]. The response of cells following a continuous 96-h exposure to test compounds and platinates was determined using the MTT assay. Potency was recorded as the IC50 and the selectivity index (SI) was defined as the ratio of IC50 values for non-cancer to cancer cell lines with values >1 representing selectivity for cancer cells as opposed to non-cancer cells.
(§2) All cell lines used were maintained at low passage in antibiotic-free media. HT29, DLD-1, HCT116 p53^+/+ and HCT116 p53^−/− are all colorectal adenocarcinoma cell lines derived from different individuals and harbour different combinations of oncogenic lesions (except for the HCT116 isogenic cancer cell clones that are genetically identical except for p53 status). PSN-1, BxPC-3 and MiaPaCa2 are pancreatic carcinoma cell lines and A549 and H460 are lung carcinoma cell lines. HT29, DLD-1, PSN-1, BxPC-3, A549 and H460 cell lines were cultured in RPMI-1640 growth media (Sigma) containing 2 mM L-glutamine, 1 mM sodium pyruvate and 10% foetal bovine serum (FBS). HCT116 (p53^+/+ and p53^−/−) and MiaPaCa2 cell lines were cultured in Dulbecco’s Modified Eagle’s Medium (Sigma), 2 mM L-glutamine and 10% FBS. The ARPE-19 retinal epithelial non-cancer cell line was cultured in DMEM/F12 media (Gibco), 2 mM L-glutamine, 1 mM sodium pyruvate and 10% FBS. The MCF10A non-cancerous human breast epithelial cell line was cultured in Minimal Essential Media Eagle (Sigma), 2 mM L-glutamine, 1 mM sodium pyruvate, 10% FBS and 1x non-essential amino acids (NEAA). NP1 and GBM1 cells were cultured on plasticware coated with poly-L-ornithine (5 µg/ml) and laminin (2.4 µg/ml)[32],[33]. NP1 cells were grown in DMEM/F12 media (Gibco) supplemented with 5% FBS, 20 ng/ml hFGF, 20 ng/ml rhEGF, 0.5x B-27 supplement (Gibco), 0.5x N-2 supplement (Gibco) and 1x GLUTAMAX (Gibco). GBM1 cells were cultured in Neurobasal media (Gibco) supplemented with 40 ng/ml hFGF, 40 ng/ml rhEGF, 0.5x B-27 supplement (Gibco) and 0.5x N-2 supplement (Gibco).
(§3) [L2(Metal)3]^6+ and all the other self-assembling complexes were freshly formed by adding DMSO to individual components and mixing together by pipetting. These were then further diluted in cell culture media such that the final DMSO concentration that cells were exposed to was 0.2% (vehicle control). Cisplatin, oxaliplatin and carboplatin were dissolved in phosphate buffered saline. Cell lines were seeded into 96 well plates at 2 × 10^3 cells per well and incubated overnight at 37 °C. GBM1 cancer stem-like cells were seeded at 3 × 10^3 cells per well and NP1 neural progenitors were seeded at 1.5 × 10^3 cells per well. The following day, media was removed and replaced with fresh media containing test compounds at a range of concentrations. Cells were incubated with test compounds for a further 96 h after which the media was removed and replaced with fresh media (200 μl/well). MTT was added (20 μl at 5 mg/ml) and cells were incubated for a further 4 h. Media and MTT were removed and formazan crystals were dissolved in 150 μl of DMSO and the absorbance of the resulting solution determined at 540 nm. Dose response curves were constructed, and the concentration required to reduce cell growth by 50% (IC50) determined.

ARPE-19 non-cancer cells = tested on: ARPE-19 non-cancer cells
Excerpt: as §1, §2, §3

H460 = tested on: H460
Excerpt: as §1, §2, §3

HCT116 p53-/- = conditions: for Selectivity index (ARPE19): IC50 ARPE-19 / IC50 HCT116 p53-/-
Excerpt: as §1, §2, §3

HT-29 = tested on: HT-29
Excerpt: as §1, §2, §3

MiaPaCa2 = tested on: MiaPaCa2
Excerpt: as §1, §2, §3

PSN1 = tested on: PSN1
Excerpt: as §1, §2, §3

[1] = ARPE-19 non-cancer, read-out: Mean IC50 values
[2] = HCT116 p53-/-, read-out: Mean IC50 values

## O=P([O-])([O-])[O-].[Cu+2].[Cu+2].[Cu+2].c1ccc(-c2csc(NCCN(CCNc3nc(-c4ccccn4)cs3)CCNc3nc(-c4ccccn4)cs3)n2)nc1.c1ccc(-c2csc(NCCN(CCNc3nc(-c4ccccn4)cs3)CCNc3nc(-c4ccccn4)cs3)n2)nc1 [[L2Cu3(PO4)]3+]
A549; A549, mean of replicates, read-out: Mean IC50
  IC50: 1.22 µM
A549; A549, read-out: Mean IC50 values
  IC50: 1.22 µM
A549; IC50 ARPE-19 / IC50 A549
  Selectivity index (ARPE19): 134.46
A549; IC50 MCF10A / IC50 A549
  Selectivity index (MCF10A): 40.54
A549; ratio of IC50, A549
  Relative potency (+ anion to no anion), Ratio + anion:no anion: 5.23
A549; ratio of SI (ARPE-19), A549
  Selectivity indices relative to ARPE-19, Ratio + anion:no anion: 0.595
A549; ratio of SI (MCF 10A), A549
  Selectivity indices relative to MCF10A, Ratio + anion:no anion: 0.196
ARPE-19 non-cancer cells; ARPE-19, mean of replicates, read-out: Mean IC50
  IC50: 164 µM
ARPE-19 non-cancer cells; ARPE-19, single replicate, read-out: IC50 values for each replicate
  IC50: 144 µM and 157 µM and 173 µM and 182 µM
ARPE-19 non-cancer cells; [1]
  IC50: 164 µM
ARPE-19 non-cancer cells; ratio of IC50, ARPE-19
  Relative potency (+ anion to no anion), Ratio + anion:no anion: 3.11
H460; H460, mean of replicates, read-out: Mean IC50
  IC50: 1.41 µM
H460; H460, read-out: Mean IC50 values
  IC50: 1.41 µM
H460; H460, single replicate, read-out: IC50 values for each replicate
  IC50: 592 nM and 533 nM and 1.4 µM and 2.22 µM and 504 nM and 1.98 µM (2×) and 2.1 µM
H460; IC50 ARPE-19 / IC50 H460
  Selectivity index (ARPE19): 115.82
H460; IC50 MCF10A / IC50 H460
  Selectivity index (MCF10A): 34.92
H460; ratio of IC50, H460
  Relative potency (+ anion to no anion), Ratio + anion:no anion: 5.12
H460; ratio of SI (ARPE-19), H460
  Selectivity indices relative to ARPE-19, Ratio + anion:no anion: 0.607
H460; ratio of SI (MCF 10A), H460
  Selectivity indices relative to MCF10A, Ratio + anion:no anion: 0.200
HCT116 p53-/-; HCT116 p53-/-, mean of replicates, read-out: Mean IC50
  IC50: 0.388 µM
HCT116 p53-/-; [2]
  IC50: 0.388 µM
HCT116 p53-/-; HCT116 p53-/-, single replicate, read-out: IC50 values for each replicate
  IC50: 0.686 µM and 0.542 µM and 0.264 µM and 0.205 µM and 0.242 µM
HCT116 p53-/-
  Selectivity index (ARPE19): 422.09
HCT116 p53-/-; IC50 MCF10A / IC50 HCT116 p53-/-
  Selectivity index (MCF10A): 127.27
HCT116 p53-/-; ratio of IC50, HCT116 p53-/-
  Relative potency (+ anion to no anion), Ratio + anion:no anion: 2.83
HCT116 p53-/-; ratio of SI (ARPE-19), HCT116 p53-/-
  Selectivity indices relative to ARPE-19, Ratio + anion:no anion: 1.099
HCT116 p53-/-; ratio of SI (MCF 10A), HCT116 p53-/-
  Selectivity indices relative to MCF10A, Ratio + anion:no anion: 0.361
HT-29; HT29, mean of replicates, read-out: Mean IC50
  IC50: 0.326 µM
HT-29; HT29, read-out: Mean IC50 values
  IC50: 0.326 µM
HT-29; HT-29, single replicate, read-out: IC50 values for each replicate
  IC50: 0.224 µM and 0.262 µM and 0.594 µM and 0.323 µM and 0.229 µM
HT-29; IC50 ARPE-19 / IC50 HT29
  Selectivity index (ARPE19): 502.36
HT-29; IC50 MCF10A / IC50 HT29
  Selectivity index (MCF10A): 151.48
HT-29; ratio of IC50, HT29
  Relative potency (+ anion to no anion), Ratio + anion:no anion: 1.52
HT-29; ratio of SI (ARPE-19), HT29
  Selectivity indices relative to ARPE-19, Ratio + anion:no anion: 2.043
HT-29; ratio of SI (MCF 10A), HT29
  Selectivity indices relative to MCF10A, Ratio + anion:no anion: 0.672
MiaPaCa2; IC50 ARPE-19 / IC50 MiaPaCa2
  Selectivity index (ARPE19): 1.36
MiaPaCa2; IC50 MCF10A / IC50 MiaPaCa2
  Selectivity index (MCF10A): 0.41
MiaPaCa2; MiaPaCa2, mean of replicates, read-out: Mean IC50
  IC50: 121 µM
MiaPaCa2; MiaPaCa2, read-out: Mean IC50 values
  IC50: 121 µM
MiaPaCa2; MiaPaCa2, single replicate, read-out: IC50 values for each replicate
  IC50: 108 µM and 145 µM and 109 µM
MiaPaCa2; ratio of IC50, MiaPaCa2
  Relative potency (+ anion to no anion), Ratio + anion:no anion: 10.22
MiaPaCa2; ratio of SI (ARPE-19), MiaPaCa2
  Selectivity indices relative to ARPE-19, Ratio + anion:no anion: 0.305
MiaPaCa2; ratio of SI (MCF 10A), MiaPaCa2
  Selectivity indices relative to MCF10A, Ratio + anion:no anion: 0.100
PSN1; IC50 ARPE-19 / IC50 PSN1
  Selectivity index (ARPE19): 9.29
PSN1; IC50 MCF10A / IC50 PSN1
  Selectivity index (MCF10A): 2.80
PSN1; PSN1, mean of replicates, read-out: Mean IC50
  IC50: 17.6 µM
PSN1; PSN1, read-out: Mean IC50 values
  IC50: 17.6 µM
PSN1; PSN1, single replicate, read-out: IC50 values for each replicate
  IC50: 18.4 µM and 18.6 µM and 17.5 µM and 15.9 µM
PSN1; ratio of IC50, PSN1
  Relative potency (+ anion to no anion), Ratio + anion:no anion: 2.73
PSN1; ratio of SI (ARPE-19), PSN1
  Selectivity indices relative to ARPE-19, Ratio + anion:no anion: 1.138
PSN1; ratio of SI (MCF 10A), PSN1
  Selectivity indices relative to MCF10A, Ratio + anion:no anion: 0.374

## [Mn+2].[Mn+2].[Mn+2].c1ccc(-c2csc(NCCN(CCNc3nc(-c4ccccn4)cs3)CCNc3nc(-c4ccccn4)cs3)n2)nc1.c1ccc(-c2csc(NCCN(CCNc3nc(-c4ccccn4)cs3)CCNc3nc(-c4ccccn4)cs3)n2)nc1 [[L2Mn3]6+]
ARPE-19 non-cancer cells; ARPE-19, 96 h, MTT, individual run, read-out: IC50 values for each replicate
  IC50: 5.14 µM and 2.1 µM and 2.12 µM and 2.08 µM
ARPE-19 non-cancer cells; ARPE-19, 96 h, MTT, mean of at least 3 independent experiments, read-out: Mean IC50
  IC50: 2.86 µM
ARPE-19 non-cancer cells; [1]
  IC50: 2.86 µM
HCT116 p53-/-; HCT116 p53-/-, 96 h, MTT, individual run, read-out: IC50 values for each replicate
  IC50: 1.56 µM and 0.785 µM and 1.35 µM and 1.28 µM
HCT116 p53-/-; HCT116 p53-/-, 96 h, MTT, mean of at least 3 independent experiments, read-out: Mean IC50
  IC50: 1.25 µM
HCT116 p53-/-; [2]
  IC50: 1.25 µM
HCT116 p53-/-
  Selectivity index (ARPE19): 2.30
HCT116 p53-/-; mean IC50 ARPE-19 / mean IC50 HCT116 p53-/-
  SI (ARPE19): 2.295
